From ChEMBL document CHEMBL1137946, “Synthesis and biological evaluation of (-)-laulimalide analogues” (Bioorg Med Chem Lett, 2004) come the findings set out here.

The test system of one assay is HT-29. The assay is described as follows: In vitro growth inhibitory activity against HT-29 human colon cancer cell line. Format: functional, cell-based.
The next assay has as its system MDA-MB-435. As to the kind of experiment: In vitro growth inhibitory activity against MDA-MB-435 human breast cancer cell line. Format: functional, cell-based.

Where only a bound is given, the exact number is not on record here.

`C=C1C[C@H](C)C[C@@H]2CC=C[C@@H](C/C=C/C(=O)O[C@H]([C@@H](O)/C=C/[C@@H]3CC(C)=CCO3)C/C=C/[C@@H](O)C1)O2`: the values for the IC50 with HT-29 and with MDA-MB-435 were 8500 nM and 2760 nM, respectively. Taken in the same sequence, the figures for `C=C1C[C@H](C)C[C@@H]2CC=C[C@@H](CCCC(=O)O[C@H]([C@H](/C=C/[C@@H]3CC(C)=CCO3)OC)C[C@@H]3O[C@H]3[C@@H](O)C1)O2` were greater than 1000 nM and greater than 1000 nM. For `C=C1C[C@H](C)C[C@@H]2CC=C[C@@H](C/C=C\C(=O)O[C@H]([C@@H](O)/C=C/[C@@H]3CC(C)=CCO3)C[C@@H]3O[C@H]3[C@@H](OC(C)=O)C1)O2`, the midpoint of inhibition in the assay with MDA-MB-435, the IC50, lay at 23 nM. The same measure, in the same setting: to `C=C1C[C@H](C)C[C@@H]2CC=C[C@@H](C/C=C\C(=O)O[C@H]([C@H](/C=C/[C@@H]3CC(C)=CCO3)OC(C)=O)C[C@@H]3O[C@H]3[C@@H](O)C1)O2` belongs 91 nM. On to `C=C1C[C@H](C)C[C@@H]2CC=C[C@@H](C/C=C\C(=O)O[C@H]([C@@H](O)/C=C/[C@@H]3CC(C)=CCO3)C/C=C/[C@@H](O)C1)O2`, for which the values for the IC50 with HT-29 and in the assay with MDA-MB-435 were 960 nM and 289 nM, respectively. Regarding `C=C1C[C@H](C)C[C@@H]2CC=C[C@@H](C/C=C\C(=O)O[C@H]([C@@H](O)/C=C/[C@@H]3CC(C)=CCO3)C[C@@H]3O[C@H]3[C@@H](OC)C1)O2`, the IC50 with MDA-MB-435 was greater than 1000 nM. The same measure, in the same setting: then `C=C1C[C@H](C)C[C@@H]2CC=C[C@@H](C/C=C\C(=O)O[C@H]([C@@H](O)/C=C/[C@@H]3CC(C)=CCO3)C[C@H]3O[C@@H]3[C@H](OC(=O)c3ccc([N+](=O)[O-])cc3)C1)O2`, with greater than 1000 nM. Same read-out and setting: then `C=C1C[C@H](C)C[C@@H]2CC=C[C@@H](C/C=C\C(=O)O[C@H]([C@H](/C=C/[C@@H]3CC(C)=CCO3)O[Si](C)(C)C(C)(C)C)C[C@@H]3O[C@H]3[C@@H](O)C1)O2`, with greater than 1000 nM. In the case of `C=C1C[C@H](C)C[C@@H]2CC=C[C@@H](C/C=C\C(=O)O[C@H]([C@@H](O)/C=C/[C@@H]3CC(C)=CCO3)C/C=C/[C@H](O)C1)O2`, the IC50 was determined as 2700 nM in the assay on HT-29 and 790 nM in the assay on MDA-MB-435. As to `C=C1C[C@H](C)C[C@@H]2CC=C[C@@H](C/C=C\C(=O)O[C@H]([C@H](/C=C/[C@@H]3CC(C)=CCO3)OC(C)=O)C[C@@H]3O[C@H]3[C@@H](OC(C)=O)C1)O2`, the IC50 with MDA-MB-435 worked out at 289 nM. On the same count and under the same terms, to `C=C1CC(=N\OC)/C=C/C[C@@H]([C@@H](O)/C=C/[C@@H]2CC(C)=CCO2)OC(=O)/C=C\C[C@@H]2C=CC[C@@H](C[C@@H](C)C1)O2` belongs greater than 1000 nM; to `C=C1C[C@H](C)C[C@@H]2CC=C[C@@H](C/C=C\C(=O)O[C@H]([C@@H](O)/C=C/[C@@H]3CC(C)=CCO3)C[C@@H]3O[C@H]3[C@H](OC(=O)OC)C1)O2`, 422 nM. Consider `C=C1C[C@H](C)C[C@@H]2CC=C[C@@H](CC#CC(=O)O[C@H]([C@H](/C=C/[C@@H]3CC(C)=CCO3)OC)C[C@@H]3O[C@H]3[C@@H](O)C1)O2`, for which the IC50 with HT-29 and in the assay on MDA-MB-435 was greater than 1000 nM throughout. In the assay on MDA-MB-435, `C=C1C[C@H](C)C[C@@H]2CC=C[C@@H](C/C=C\C(=O)O[C@H]([C@@H](O)/C=C/[C@@H]3CC(C)=CCO3)C[C@@H]3O[C@H]3[C@H](OC(=O)c3ccc([N+](=O)[O-])cc3)C1)O2` displayed an IC50 of 37 nM.

Take `C=C1C[C@H](C)C[C@@H]2CC=C[C@@H](C/C=C\C(=O)O[C@H]([C@@H](O)/C=C/[C@@H]3CC(C)=CCO3)C[C@@H]3O[C@H]3[C@H](OC(=O)N(C)C)C1)O2`: the IC50 with MDA-MB-435 was found to be 601 nM.

`C=C1C[C@H](C)C[C@@H]2CC=C[C@@H](C/C=C\C(=O)O[C@H]([C@@H](O)/C=C/[C@@H]3CC(C)=CCO3)C[C@H]3O[C@@H]3[C@H](O)C1)O2` showed an IC50 with MDA-MB-435 of 176 nM. The compound `C=C1CC(=O)/C=C/C[C@@H]([C@@H](O)/C=C/[C@@H]2CC(C)=CCO2)OC(=O)/C=C\C[C@@H]2C=CC[C@@H](C[C@@H](C)C1)O2` yielded an IC50 with MDA-MB-435 greater than 1000 nM. For `C=C1C[C@H](C)C[C@@H]2CC=C[C@@H](C/C=C\C(=O)O[C@H]([C@H](/C=C/[C@@H]3CC(C)=CCO3)OC)C[C@@H]3O[C@H]3[C@@H](O)C1)O2`, the IC50 in the assay with HT-29 came out at 590 nM; with MDA-MB-435, 242 nM.

Turning to `C=C1C[C@H](C)C[C@@H]2CC=C[C@@H](C/C=C/C(=O)O[C@H]([C@@H](O)/C=C/[C@@H]3CC(C)=CCO3)C/C=C/[C@H](O)C1)O2`, the results for the IC50 with HT-29 and in the assay on MDA-MB-435 were 9600 nM and 4300 nM, respectively. The matching figures for `C=C1C[C@H](C)C[C@@H]2CC=C[C@@H](C/C=C\C(=O)O[C@H]([C@@H](O)/C=C/[C@@H]3CC(C)=CCO3)C[C@@H]3O[C@H]3[C@@H](O)C1)O2` [FIJIANOLIDE B]: 6.9 nM and 2.3 nM.
